Starred links: 1 amine or outer side, 2 acyl side, 3 side chain; linkers in the order of their positions; H or OH if unused. Positions of bridges follow the written chain, without caps; N, C: chain ends. Non-standard residues stand in square brackets, D forms with d. Residues, ends and D or L forms follow the SMILES beside them. Groups on a side chain read outwards from the residue. ξ: configuration not given here. *: point of attachment. X33 = CCCCCCCCCCCC(=O)Nc1cc(NC(=O)CCCCCCCCCCC)cc(C(=O)*)c1; Adamantane1carbonyl = O=C(C12CC3CC(CC(C3)C1)C2)*; X34 = CCCCCC(=O)Nc1cc(NC(=O)CCCCC)cc(C(=O)*)c1; X3 = CC(NC(=O)[C@H](N)CN)C(N[*:1])C(=O)[*:2]; ξAbu(βξ-NH2) = CC(N[*:3])C(N[*:1])C(=O)[*:2]; Benzoyl(3-OPh) = O=C(c1cccc(Oc2ccccc2)c1)*; Benzoyl(4-tBu) = CC(C)(C)c1ccc(C(=O)*)cc1; NH(2-CF3-phenyl) = FC(F)(F)c1ccccc1N*; Pentadecanoyl = CCCCCCCCCCCCCCC(=O)*; ξAsp(βξ-Me) = CC(C(=O)O)C(N)C(=O)O; Tridecanoyl = CCCCCCCCCCCCC(=O)*; X1 = O=C(Cc1ccc(N[*:1])cc1)[*:2]; X13 = O=C(CCCCCCCCCCOc1ccccc1)*; ξAbu(3ξ-NH2) = CC(N)C(N)C(=O)O; Undecanoyl = CCCCCCCCCCC(=O)*; X9 = O=C(c1ccccc1Cc1ccccc1)*; Pip = O=C(O)[CH]1CCCCN1; ξD = NC(CC(=O)O)C(=O)O; ξPip = O=C(O)C1CCCCN1; CO = O=C([*:1])[*:2]; ξV = CC(C)C(N)C(=O)O; ξP = O=C(O)C1CCCN1; OtBu = CC(C)(C)O*
Tested on: Staphylococcus aureus (MSSA)
Conditions: 24 h
How it was run: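 Broth microdilution MIC per NCCLS M7-A6 with doubling serial dilutions, in cation-adjusted Mueller-Hinton broth supplemented with 0.625 mM calcium.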

MIC [µg/mL]	Structure (SMILES)
8	CCCCCCCCCCCCC(=O)N[C@@H](CC(=O)OC)C(=O)NC(CC(=O)O)C(=O)NC1C(=O)N2CCCCC2C(=O)NC(C(C)C(=O)O)C(=O)NC(CC(=O)O)C(=O)NCC(=O)NC(CC(=O)O)C(=O)NCC(=O)NC(C(C)N)C(=O)NC(C(C)C)C(=O)N2CCCC2C(=O)NC1C (stereo partly drawn) [Compound 311, C13-(Asp-(OMe))-Amphomycin] (Tridecanoyl-D(OMe)[ξD][ξAbu(βξ-NH2)][ξPip][ξAsp(βξ-Me)][ξD]G[ξD]G[ξAbu(3ξ-NH2)][ξV][ξP]; lactam 3-C)
0.5 to 1	CCCCCCCCCCCCCCC(=O)N[C@@H](CC(=O)OC)C(=O)NC(CC(=O)O)C(=O)NC1C(=O)N2CCCCC2C(=O)NC(C(C)C(=O)O)C(=O)NC(CC(=O)O)C(=O)NCC(=O)NC(CC(=O)O)C(=O)NCC(=O)NC(C(C)N)C(=O)NC(C(C)C)C(=O)N2CCCC2C(=O)NC1C (stereo partly drawn) [Compound 313, C15-(Asp-(OME))-Amphomycin] (Pentadecanoyl-D(OMe)[ξD][ξAbu(βξ-NH2)][ξPip][ξAsp(βξ-Me)][ξD]G[ξD]G[ξAbu(3ξ-NH2)][ξV][ξP]; lactam 3-C)
>64	CCCCCCCCCCC(=O)N[C@@H](CC(=O)OC)C(=O)NC(CC(=O)O)C(=O)NC1C(=O)N2CCCCC2C(=O)NC(C(C)C(=O)O)C(=O)NC(CC(=O)O)C(=O)NCC(=O)NC(CC(=O)O)C(=O)NCC(=O)NC(C(C)N)C(=O)NC(C(C)C)C(=O)N2CCCC2C(=O)NC1C (stereo partly drawn) [Compound 316, C11-(Asp-(OMe))-Amphomycin] (Undecanoyl-D(OMe)[ξD][ξAbu(βξ-NH2)][ξPip][ξAsp(βξ-Me)][ξD]G[ξD]G[ξAbu(3ξ-NH2)][ξV][ξP]; lactam 3-C)
64	CCCCCC(=O)Nc1cc(NC(=O)CCCCC)cc(C(=O)NC(CC(=O)O)C(=O)NC2C(=O)N3CCCCC3C(=O)NC(C(C)C(=O)O)C(=O)NC(CC(=O)O)C(=O)NCC(=O)NC(CC(=O)O)C(=O)NCC(=O)NC(C(C)N)C(=O)NC(C(C)C)C(=O)N3CCCC3C(=O)NC2C)c1 (stereo not drawn) [Compound 319, N,N′-di-C6-(M,M-Diaminobenzoyl)-Amphomycin] (X34-D[ξAbu(βξ-NH2)][Pip][ξAsp(βξ-Me)]DGDG[ξAbu(3ξ-NH2)]VP; lactam 2-C; configuration not given here)
2	CCCCCCCCCCCCCCC(=O)NC(CC(=O)O)C(=O)NC1C(=O)N2CCCCC2C(=O)NC(C(C)C(=O)O)C(=O)NC(CC(=O)O)C(=O)NCC(=O)NC(CC(=O)O)C(=O)NCC(=O)NC(C(C)NC(=O)[C@H](N)CN)C(=O)NC(C(C)C)C(=O)N2CCCC2C(=O)NC1C (stereo partly drawn) [Compound 328, C15-Amphomycin-9-(D-Dap)] (Pentadecanoyl-[ξD][ξAbu(βξ-NH2)][ξPip][ξAsp(βξ-Me)][ξD]G[ξD]G[X3][ξV][ξP]; lactam 2-C)
>64	CC(C)C1NC(=O)C(C(C)N)NC(=O)CNC(=O)C(CC(=O)O)NC(=O)CNC(=O)C(CC(=O)O)NC(=O)C(C(C)C(=O)O)NC(=O)C2CCCCN2C(=O)C(NC(=O)C(CC(=O)O)NC(=O)C23CC4CC(CC(C4)C2)C3)C(C)NC(=O)C2CCCN2C1=O (stereo not drawn) [Compound 336] (Adamantane1carbonyl-D[ξAbu(βξ-NH2)][Pip][ξAsp(βξ-Me)]DGDG[ξAbu(3ξ-NH2)]VP; lactam 2-C; configuration not given here)
0.5	CCCCCCCCCCCCOc1cccc2ccc(C(=O)NC(CC(=O)O)C(=O)NC3C(=O)N4CCCCC4C(=O)NC(C(C)C(=O)O)C(=O)NC(CC(=O)O)C(=O)NCC(=O)NC(CC(=O)O)C(=O)NCC(=O)NC(C(C)N)C(=O)NC(C(C)C)C(=O)N4CCCC4C(=O)NC3C)nc12 (centres unmarked) [Compound 339, (8-Dodecyloxy-Quinoline-2-Carbonyl)-Amphomycin]
>64	CCCCCCCCCCCCCCC(=O)NC(CC(=O)O)C(=O)NC1C(=O)N2CCCCC2C(=O)NC(C(C)C(=O)O)C(=O)NC(CC(=O)O)C(=O)NCC(=O)NC(CC(=O)O)C(=O)NCC(=O)NC(C(C)NC(=O)[C@@H](N)Cc2ccccc2)C(=O)NC(C(C)C)C(=O)N2CCCC2C(=O)NC1C (some centres unmarked) [Compound 341, C15-Amphomycin-9-Phe]

Second part, the molecule before the results:

Structure (SMILES)	MIC [µg/mL]
CCCCCCCCCCCCCCC(=O)Nc1ccc(CC(=O)NC(CC(=O)O)C(=O)NC2C(=O)N3CCCCC3C(=O)NC(C(C)C(=O)O)C(=O)NC(CC(=O)O)C(=O)NCC(=O)NC(CC(=O)O)C(=O)NCC(=O)NC(C(C)N)C(=O)NC(C(C)C)C(=O)N3CCCC3C(=O)NC2C)cc1 (stereo not drawn) [Compound 312, C15-(p-Apa)-Amphomycin] (Pentadecanoyl-[X1]D[ξAbu(βξ-NH2)][Pip][ξAsp(βξ-Me)]DGDG[ξAbu(3ξ-NH2)]VP; lactam 3-C; configuration not given here)	1
CCCCCCCCCCC(=O)N[C@@H](CC(=O)OC(C)(C)C)C(=O)NC(CC(=O)O)C(=O)NC1C(=O)N2CCCCC2C(=O)NC(C(C)C(=O)O)C(=O)NC(CC(=O)O)C(=O)NCC(=O)NC(CC(=O)O)C(=O)NCC(=O)NC(C(C)N)C(=O)NC(C(C)C)C(=O)N2CCCC2C(=O)NC1C (stereo partly drawn) [Compound 314, C11-(Asp-(OtBu))-Amphomycin] (Undecanoyl-D(OtBu)[ξD][ξAbu(βξ-NH2)][ξPip][ξAsp(βξ-Me)][ξD]G[ξD]G[ξAbu(3ξ-NH2)][ξV][ξP]; lactam 3-C)	8
CCCCCCCCCCCCC(=O)N[C@@H](CC(=O)OC(C)(C)C)C(=O)NC(CC(=O)O)C(=O)NC1C(=O)N2CCCCC2C(=O)NC(C(C)C(=O)O)C(=O)NC(CC(=O)O)C(=O)NCC(=O)NC(CC(=O)O)C(=O)NCC(=O)NC(C(C)N)C(=O)NC(C(C)C)C(=O)N2CCCC2C(=O)NC1C (stereo partly drawn) [Compound 315, C13-(Asp-(OtBu))-Amphomycin] (Tridecanoyl-D(OtBu)[ξD][ξAbu(βξ-NH2)][ξPip][ξAsp(βξ-Me)][ξD]G[ξD]G[ξAbu(3ξ-NH2)][ξV][ξP]; lactam 3-C)	1
CCCCCCCCCCCCCCC(=O)N[C@H](CC(=O)OC)C(=O)NC(CC(=O)O)C(=O)NC1C(=O)N2CCCCC2C(=O)NC(C(C)C(=O)O)C(=O)NC(CC(=O)O)C(=O)NCC(=O)NC(CC(=O)O)C(=O)NCC(=O)NC(C(C)N)C(=O)NC(C(C)C)C(=O)N2CCCC2C(=O)NC1C (stereo partly drawn) [Compound 317, C15-(Asp-(Ome))-Amphomycin] (Pentadecanoyl-[dD](OMe)[ξD][ξAbu(βξ-NH2)][ξPip][ξAsp(βξ-Me)][ξD]G[ξD]G[ξAbu(3ξ-NH2)][ξV][ξP]; lactam 3-C)	1
CCCCCCCCCCCCCCC(=O)NC(CC(=O)O)C(=O)NC1C(=O)N2CCCCC2C(=O)NC(C(C)C(=O)O)C(=O)NC(CC(=O)O)C(=O)NCC(=O)NC(CC(=O)O)C(=O)NCC(=O)NC(C(C)NC(=O)Nc2ccccc2C(F)(F)F)C(=O)NC(C(C)C)C(=O)N2CCCC2C(=O)NC1C (stereo not drawn) [Compound 318, C15-Amphomycin-9-C(═O)—NH—(O—CF3-Phenyl)] (Pentadecanoyl-D[ξAbu(βξ-NH2)][Pip][ξAsp(βξ-Me)]DGDG[ξAbu(βξ-NH2)]([CO-NH(2-CF3-phenyl)])VP; lactam 2-C; configuration not given here)	64
CCCCCCCCCCCC(=O)Nc1cc(NC(=O)CCCCCCCCCCC)cc(C(=O)NC(CC(=O)O)C(=O)NC2C(=O)N3CCCCC3C(=O)NC(C(C)C(=O)O)C(=O)NC(CC(=O)O)C(=O)NCC(=O)NC(CC(=O)O)C(=O)NCC(=O)NC(C(C)N)C(=O)NC(C(C)C)C(=O)N3CCCC3C(=O)NC2C)c1 (stereo not drawn) [Compound 320, N,N′-di-C12-(M,M-Diaminobenzoyl)-Amphomycin] (X33-D[ξAbu(βξ-NH2)][Pip][ξAsp(βξ-Me)]DGDG[ξAbu(3ξ-NH2)]VP; lactam 2-C; configuration not given here)	2
CCCCCCCCNC(=O)NCCC(=O)NC(CC(=O)O)C(=O)NC1C(=O)N2CCCCC2C(=O)NC(C(C)C(=O)O)C(=O)NC(CC(=O)O)C(=O)NCC(=O)NC(CC(=O)O)C(=O)NCC(=O)NC(C(C)N)C(=O)NC(C(C)C)C(=O)N2CCCC2C(=O)NC1C (stereo not drawn) [Compound 321, CH3—(CH2)7—NH—C(═O)-(β-Ala)-Amphomycin]	>64
CC(C)C1NC(=O)C(C(C)N)NC(=O)CNC(=O)C(CC(=O)O)NC(=O)CNC(=O)C(CC(=O)O)NC(=O)C(C(C)C(=O)O)NC(=O)C2CCCCN2C(=O)C(NC(=O)C(CC(=O)O)NC(=O)c2ccccc2Cc2ccccc2)C(C)NC(=O)C2CCCN2C1=O (stereo not drawn) [Compound 323, (2-(Phenylmethyl)-Benzoyl)-Amphomycin] (X9-D[ξAbu(βξ-NH2)][Pip][ξAsp(βξ-Me)]DGDG[ξAbu(3ξ-NH2)]VP; lactam 2-C; configuration not given here)	>64
CC(C)C1NC(=O)C(C(C)N)NC(=O)CNC(=O)C(CC(=O)O)NC(=O)CNC(=O)C(CC(=O)O)NC(=O)C(C(C)C(=O)O)NC(=O)C2CCCCN2C(=O)C(NC(=O)C(CC(=O)O)NC(=O)c2ccc(C(C)(C)C)cc2)C(C)NC(=O)C2CCCN2C1=O (stereo not drawn) [Compound 326, (4-Tbutylbenzoyl)-Amphomycin] ({Benzoyl(4-tBu)}-D[ξAbu(βξ-NH2)][Pip][ξAsp(βξ-Me)]DGDG[ξAbu(3ξ-NH2)]VP; lactam 2-C; configuration not given here)	>64
CC(C)C1NC(=O)C(C(C)N)NC(=O)CNC(=O)C(CC(=O)O)NC(=O)CNC(=O)C(CC(=O)O)NC(=O)C(C(C)C(=O)O)NC(=O)C2CCCCN2C(=O)C(NC(=O)C(CC(=O)O)NC(=O)c2cccc(Oc3ccccc3)c2)C(C)NC(=O)C2CCCN2C1=O (stereo not drawn) [Compound 327, (3-(Phenoxy)-Benzoyl)-Amphomycin] ({Benzoyl(3-OPh)}-D[ξAbu(βξ-NH2)][Pip][ξAsp(βξ-Me)]DGDG[ξAbu(3ξ-NH2)]VP; lactam 2-C; configuration not given here)	>64
CCCCCCCCCCCCCCC(=O)NC(C)C1NC(=O)CNC(=O)C(CC(=O)O)NC(=O)CNC(=O)C(CC(=O)O)NC(=O)C(C(C)C(=O)O)NC(=O)C2CCCCN2C(=O)C(NC(=O)C(CC(=O)O)NC(=O)CNC(=O)[C@@H](N)CCCCN)C(C)NC(=O)C2CCCN2C(=O)C(C(C)C)NC1=O (stereo partly drawn) [Compound 331, Lys-Gly-Amphomycin-9-C15] (H-KG[ξD][ξAbu(βξ-NH2)][ξPip][ξAsp(βξ-Me)][ξD]G[ξD]G[ξAbu(βξ-NH2)](Pentadecanoyl)[ξV][ξP]; lactam 4-C)	>64
CC(C)C1NC(=O)C(C(C)N)NC(=O)CNC(=O)C(CC(=O)O)NC(=O)CNC(=O)C(CC(=O)O)NC(=O)C(C(C)C(=O)O)NC(=O)C2CCCCN2C(=O)C(NC(=O)C(CC(=O)O)NC(=O)CCCCCCCCCCOc2ccccc2)C(C)NC(=O)C2CCCN2C1=O (stereo not drawn) [Compound 333, (11-(Phenoxy)Undecanoyl)-Amphomycin] (X13-D[ξAbu(βξ-NH2)][Pip][ξAsp(βξ-Me)]DGDG[ξAbu(3ξ-NH2)]VP; lactam 2-C; configuration not given here)	1
